Test results from publication PMC6499206, “Quantification of Volatile Metabolites Derived From Garlic (Allium sativum) in Human Urine” (Frontiers in Nutrition, 2019).

Experiment: Quantification of garlic-derived metabolites in human urine after ingestion of 3 g raw garlic (SIDA, SAFE, HRGC-MS / HRGC-GC-MS)
Type: in vivo
Design: metabolite in urine related to creatinine: unit not given here
Conditions: for metabolite concentration in urine, creatinine-normalized / metabolite concentration in urine / time of highest concentration in urine after garlic consumption / highest detected concentration of the sample series: 3 g raw garlic; for highest detected concentration of the sample series: same bulb
From the text: Human urine samples were obtained from 18 volunteers (age 22–38 years, mean 27 years; 11 females, 7 males); thereby, one volunteer conducted the whole experimental series twice. At the time of examination, volunteers reported no known illness that might have potentially influenced the metabolism or the excretion of urine. The test persons were instructed to avoid foods that were rich in sulfur-containing substances at the testing day as well as 2 days preceding the testing day, namely garlic, onion, wild garlic, chives, cabbage, and leek, and were only allowed to consume the garlic sample provided in the course of the experiments. Additionally, subjects were asked to keep records of the food (including food supplements) and beverages they consumed during these 3 testing days. Generally, the overall panelists' requirements were in accordance with our previous studies ([5], [16]).
On the sampling day, the outer garlic cloves of a whole garlic bulb were peeled and cut into ~3 mm cubes by using a garlic cutter (Genius GmbH, Limburg/Lahn, Germany). Subsequently these cubes were thoroughly mixed and aliquoted into 3 g portions. Three to four test persons conducted the experiment at the same day. Each test person was asked to ingest a garlic portion of 3 g. In total, eight consecutive urine samples were provided by each test person, comprising one whole urine set. The samples were collected in sterile brown glass bottles, with sampling times as follows: one sample was provided directly prior to garlic consumption. The series of the second to eighth sample was then obtained at about 0.5, 1, 2, 4, 6, 8, and 24 h after garlic consumption, respectively. Between the first urine sample (prior to garlic consumption) and the seventh urine sample (8 h after garlic consumption) test persons only spent urine at the specific time points mentioned before. Another sample was provided at the next morning (24 h after garlic consumption). Between the samples provided 8 and 24 h after garlic consumption no urine was collected. All samples were immediately placed into a −80°C freezer and were kept frozen until further analysis.
The samples of each set were termed according to their sampling time. The following list provides the time intervals that are related to the respective sample name: • - pre: before garlic consumption • - 0.5 h post: 0.4–0.8 h after garlic consumption • - 1 h post: 0.9–1.3 h after garlic consumption • - 2 h post: 1.8 h−2.2 h after garlic consumption • - 4 h post: 3.8–4.4 h after garlic consumption • - 6 h post: 5.8–6.4 h after garlic consumption • - 8 h post: 7.8–8.4 h after garlic consumption • - 24 h post: 23.8–25.6 h after garlic consumption
A creatinine kit (Labor+Technik Eberhard Lehmann GmbH, Berlin, Germany) was used to determine the creatinine content in each urine sample. The determination principle of this kit is based on the reaction of creatinine with picric acid under basic conditions (Jaffé reaction). The formed complex was detected photometrically at a wavelength of 492 nm.
For quantification purposes, the deuterated standards ^2H3-AMS, ^2H3-AMSO, and ^2H3-AMSO2 were added to the sample and stirred for 10 min. Subsequently, DCM was added in a ratio of 1:2 (DCM/human urine; v/v) and this solution was stirred for further 30 min at room temperature. To isolate the volatile fraction from the urine samples we then applied SAFE-distillation ([17]), thereby distilling the respective samples at 50°C. After completion of the distillation process, 10 mL of DCM were applied in each case to rinse the SAFE apparatus and to ensure complete transition of the volatile compounds. This process was repeated with another 10 mL of DCM. After thawing, the obtained aqueous distillate phase was extracted three times with 25 mL DCM. The organic phases were combined, dried over anhydrous Na2SO4 and concentrated to a total volume of 100 μL by means of Vigreux distillation and subsequent micro-distillation at 50°C. […]

metabolite concentration in urine, creatinine-normalized (U XII, 2 h post (1.85 h)): 1.3 µg/mmol creatinine | metabolite concentration in urine (U XII, 4 h post (3.80 h)): 0.5 µg/kg | metabolite concentration in urine, creatinine-normalized (U XII, 4 h post (3.80 h)): 0.2 µg/mmol creatinine | metabolite concentration in urine (U XII, 6 h post (5.82 h)): 0.4 µg/kg | metabolite concentration in urine, creatinine-normalized (U XII, 6 h post (5.82 h)): 0.1 µg/mmol creatinine | metabolite concentration in urine (U XII, 8 h post (7.82 h)): 0.3 µg/kg | metabolite concentration in urine, creatinine-normalized (U XII, 8 h post (7.82 h)): 0.1 µg/mmol creatinine | metabolite concentration in urine (U XII, 24 h post (23.92 h)): traces^1 | metabolite concentration in urine, creatinine-normalized (U XII, 24 h post (23.92 h)): traces^1 | metabolite concentration in urine (U XII, pre (-0.08 h)): traces^1 | metabolite concentration in urine, creatinine-normalized (U XII, pre (-0.08 h)): traces^1 | metabolite concentration in urine (U XIII, 0.5 h post (0.42 h)): 0.2 µg/kg | metabolite concentration in urine, creatinine-normalized (U XIII, 0.5 h post (0.42 h)): 0.1 µg/mmol creatinine | metabolite concentration in urine (U XIII, 1 h post (0.92 h)): 0.9 µg/kg | metabolite concentration in urine, creatinine-normalized (U XIII, 1 h post (0.92 h)): 0.3 µg/mmol creatinine | metabolite concentration in urine (U XIII, 2 h post (1.92 h)): 1.0 µg/kg | metabolite concentration in urine, creatinine-normalized (U XIII, 2 h post (1.92 h)): 0.3 µg/mmol creatinine | metabolite concentration in urine (U XIII, 4 h post (3.92 h)): 0.8 µg/kg | metabolite concentration in urine, creatinine-normalized (U XIII, 4 h post (3.92 h)): 0.2 µg/mmol creatinine | metabolite concentration in urine (U XIII, 6 h post (5.92 h)): 0.4 µg/kg | metabolite concentration in urine, creatinine-normalized (U XIII, 6 h post (5.92 h)): 0.04 µg/mmol creatinine | metabolite concentration in urine (U XIII, 8 h post (7.92 h)): 0.3 µg/kg | metabolite concentration in urine, creatinine-normalized (U XIII, 8 h post (7.92 h)): 0.03 µg/mmol creatinine | metabolite concentration in urine (U XIII, 24 h post (23.92 h)): traces^1 | metabolite concentration in urine, creatinine-normalized (U XIII, 24 h post (23.92 h)): traces^1 | metabolite concentration in urine (U XIII, pre (-0.08 h)): < LOD^1 | metabolite concentration in urine, creatinine-normalized (U XIII, pre (-0.08 h)): < LOD^1 | amounts detected in samples collected prior to garlic intervention (Urine III, VII, VIII, XI, XII, XVI, XVII, pre-ingestion samples): ≤ 0.2 μg/mmol creatinine | time of highest concentration in urine after garlic consumption (Urine VIII): 0.5 h | variation factor of the concentration maxima between test persons (Urine XIII-XVI, highest vs lowest maximum): up to 3.2 | highest detected concentration of the sample series (Urine XIII): 0.3 μg/mmol creatinine | highest detected concentration of the sample series (Urine XIV (AMS: printed Urine UIV)): 0.4 μg/mmol creatinine | highest detected concentration of the sample series (Urine XV): 1.0 μg/mmol creatinine | time of highest concentration in urine after garlic consumption (Urine XVI): 4 h | highest detected concentration of the sample series (Urine XVI): 0.3 μg/mmol creatinine | metabolite in urine related to creatinine (urine set U XIX, 0.5 h post (0.50 h), garlic 3.1133 g): 0.1 | metabolite in urine related to creatinine (urine set U XIX, 1 h post (1.00 h), garlic 3.1133 g): 1.5 | metabolite in urine related to creatinine (urine set U XIX, 2 h post (2.00 h), garlic 3.1133 g): 0.4 | metabolite in urine related to creatinine (urine set U XIX, 4 h post (4.00 h), garlic 3.1133 g): 0.2 | metabolite in urine related to creatinine (urine set U XIX, 6 h post (6.20 h), garlic 3.1133 g): 0.1 | metabolite in urine related to creatinine (urine set U XIX, 8 h post (7.93 h), garlic 3.1133 g): 0.1 | metabolite in urine related to creatinine (urine set U XIX, 24 h post (23.98 h), garlic 3.1133 g): 0.02 | metabolite in urine related to creatinine (urine set U XIX, pre (-0.07 h), garlic 3.1133 g): < LOD^1 | metabolite in urine related to creatinine (urine set U XVII, 0.5 h post (0.58 h), garlic 3.1559 g): 0.01 | metabolite in urine related to creatinine (urine set U XVII, 1 h post (1.00 h), garlic 3.1559 g): 0.1 | metabolite in urine related to creatinine (urine set U XVII, 2 h post (2.17 h), garlic 3.1559 g): 0.3 | metabolite in urine related to creatinine (urine set U XVII, 4 h post (4.00 h), garlic 3.1559 g): 0.2 | metabolite in urine related to creatinine (urine set U XVII, 6 h post (6.08 h), garlic 3.1559 g): 0.02 | metabolite in urine related to creatinine (urine set U XVII, 8 h post (8.00 h), garlic 3.1559 g): 0.02 | metabolite in urine related to creatinine (urine set U XVII, 24 h post (23.92 h), garlic 3.1559 g): traces^1 | metabolite in urine related to creatinine (urine set U XVII, pre (-0.08 h), garlic 3.1559 g): traces^1 | metabolite in urine related to creatinine (urine set U XVIII, 0.5 h post (0.63 h), garlic 3.1981 g): 0.2 | metabolite in urine related to creatinine (urine set U XVIII, 1 h post (1.05 h), garlic 3.1981 g): 0.3 | metabolite in urine related to creatinine (urine set U XVIII, 2 h post (2.00 h), garlic 3.1981 g): 0.6 | metabolite in urine related to creatinine (urine set U XVIII, 4 h post (3.97 h), garlic 3.1981 g): 0.4 | metabolite in urine related to creatinine (urine set U XVIII, 6 h post (5.97 h), garlic 3.1981 g): 0.1 | metabolite in urine related to creatinine (urine set U XVIII, 8 h post (8.30 h), garlic 3.1981 g): 0.4 | metabolite in urine related to creatinine (urine set U XVIII, 24 h post (24.13 h), garlic 3.1981 g): traces^1 | metabolite in urine related to creatinine (urine set U XVIII, pre (-0.08 h), garlic 3.1981 g): < LOD^1
Compound: C=CCSC [AMS, allyl methyl sulfide]
